Test results published in PubChem BioAssay (NCI).
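Dose response: 5 concentrations. Exposure: 48 h. Format: 96-well plates. Endpoint: linear interpolation; highest concentration if not reached. Here, GI50 denotes the concentration required for 50% inhibition of growth. TGI: concentration producing complete growth inhibition.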 Where a SMILES comes first, the peptide text is derived from it. The star is where a group is joined. Boc = CC(C)(C)OC(=O)*

Assays:
Experiment in all cases: DTP human tumour cell line panel, 48 h
EKVX NSCLC = test system: EKVX NSCLC
786-0 renal = test system: 786-0 renal
UO-31 renal = test system: UO-31 renal
NCI/ADR-RES ovarian = test system: NCI/ADR-RES ovarian
OVCAR-4 ovarian = test system: OVCAR-4 ovarian
HL-60(TB) leukemia = test system: HL-60(TB) leukemia
SF-539 CNS = test system: SF-539 CNS
T-47D breast = test system: T-47D breast
SK-MEL-2 melanoma = test system: SK-MEL-2 melanoma
MALME-3M melanoma = test system: MALME-3M melanoma

| Compound | TGI (EKVX NSCLC) | TGI (786-0 renal) | TGI (UO-31 renal) | TGI (NCI/ADR-RES ovarian) | TGI (OVCAR-4 ovarian) | TGI (HL-60(TB) leukemia) | TGI (SF-539 CNS) | TGI (T-47D breast) | TGI (SK-MEL-2 melanoma) | TGI (MALME-3M melanoma) | GI50 (EKVX NSCLC) | GI50 (UO-31 renal) | GI50 (NCI/ADR-RES ovarian) | GI50 (HL-60(TB) leukemia) | GI50 (SF-539 CNS) | GI50 (T-47D breast) | GI50 (SK-MEL-2 melanoma) | GI50 (MALME-3M melanoma) |
| --- | --- | --- | --- | --- | --- | --- | --- | --- | --- | --- | --- | --- | --- | --- | --- | --- | --- | --- |
| O=P(O)(O)c1ccc(-c2ccc(I)cc2)cc1 | > 100 µM | > 100 µM | > 100 µM | > 100 µM | > 100 µM | > 100 µM | > 100 µM | > 100 µM | > 100 µM | > 100 µM |  |  |  |  |  |  |  |  |
| CC#C[C@]1(O)CCC2[C@@H]3CCC4=CC(=O)CCC4=C3[C@@H](c3ccc(N(C)C)cc3)C[C@@]21C (stereo not given in full) | 53 µM | 37.2 µM | 28.2 µM | 89.3 µM | 33.5 µM | 38 µM | 28.5 µM | > 100 µM |  | 42 µM |  |  |  |  |  |  |  |  |
| CCOC(=O)/C=C(/C(=O)OCC)n1cc(C)c(=O)n(Cc2cnnn2COCCOC(C)=O)c1=O | 29.3 µM | 22.5 µM | 30.4 µM | 61.3 µM | 47 µM | 13.5 µM | 19.4 µM | 46.7 µM | 60.3 µM | 13.3 µM |  |  |  |  |  |  |  |  |
| Cc1ncc([N+](=O)[O-])n1CC[N+](C)([O-])CCCCn1ccnc1[N+](=O)[O-] (stereo not given) | > 100 µM | > 100 µM | > 100 µM | > 100 µM | > 100 µM | > 100 µM | > 100 µM | > 100 µM | > 100 µM | > 100 µM |  |  |  |  |  |  |  |  |
| N[C@H]1c2c(Br)sc(Br)c2C(=O)[C@H]1O | 30.2 µM | 34.5 µM | 47.2 µM | > 58.9 µM | 27 µM | 10.5 µM | 36 µM | 50.3 µM | 69.9 µM | 29.6 µM |  |  |  |  |  |  |  |  |
| COc1ccc2c(c1)N(Cc1ccc(Cl)cc1)CCC2N1CCCC1=O (stereo not given) | 19.1 µM |  | 14.6 µM | 49.6 µM |  | 24.9 µM | 69.3 µM | 26.2 µM | 28.8 µM | 27.2 µM | 3.39 µM | 1.79 µM | 3.72 µM | 5.34 µM | 4.94 µM | 2.85 µM | 6 µM | 3.99 µM |
| COC(=O)Nc1nc2ccc(S(=O)(=O)Nc3ccccn3)cc2[nH]1 | > 100 µM | > 100 µM | > 100 µM | > 100 µM | > 100 µM | 34.8 µM | 52.6 µM | > 100 µM | > 100 µM | > 100 µM |  |  |  |  |  |  |  |  |
| O=C1/C(=C/c2ccc(O)cc2)CCCC1CN1CCCCC1 (stereo not given) | 7.8 µM | 2.38 µM | 5.88 µM | 29.6 µM | 25.8 µM | 0.924 µM | 8.45 µM | 5.21 µM | 26.9 µM | 3.36 µM |  |  |  |  |  |  |  |  |
| C[C@@]1(CCCCCCCCCCc2ccccc2)C[C@@]2(C)OC(=O)C[C@H]2OO1 | 7.2 µM | 32.9 µM | 49.9 µM | 55.8 µM | 5.03 µM | 35.8 µM | 2.58 µM | 7.32 µM | 45 µM | 3 µM |  |  |  |  |  |  |  |  |
| COc1cccc2c1NC(=O)Cc1c-2[nH]c2ccccc12 | > 100 µM | > 100 µM | > 100 µM | > 100 µM | > 100 µM | > 100 µM | > 100 µM | > 100 µM | > 100 µM | > 100 µM |  |  |  |  |  |  |  |  |
| CCC(=O)Nc1cccc(N=Cc2ccc(OC(=O)/C=C\c3ccccc3)cc2)c1 | > 75 µM | > 75 µM | > 75 µM | > 75 µM | > 75 µM | > 75 µM | > 75 µM | 37.7 µM | > 75 µM | > 75 µM |  |  |  |  |  |  |  |  |
| CC(=O)O[C@H]1C(=O)[C@@]2(C)[C@H]([C@H](OC(=O)c3ccccc3)[C@]3(O)C[C@H](OC(=O)[C@H](O)[C@@H](NC(=O)c4ccccc4)c4ccc5ccccc5c4)C(C)=C1C3(C)C)[C@]1(OC(C)=O)CO[C@@H]1C[C@@H]2O | > 50 µM | 8.59 µM | > 50 µM | > 50 µM | > 41 µM | 0.0327 µM | 0.152 µM | > 50 µM | 0.173 µM | 14.7 µM |  |  |  |  |  |  |  |  |
| Clc1ccc(CCNC2(c3cc4ccccc4s3)CCCCC2)cc1Cl | 81.3 µM | 36.8 µM | 36.7 µM | 80.8 µM | > 100 µM | 40.9 µM | 46.7 µM | 46 µM | 36.8 µM | 36.9 µM |  |  |  |  |  |  |  |  |
| COC(=O)C(Cc1ccccc1)NC(=O)C(CS)NC(=O)OC(C)(C)C (stereo not drawn) (Boc-Cys-Phe-OMe; configuration not given here) | > 100 µM | > 100 µM | > 100 µM | > 100 µM | > 100 µM | > 100 µM | > 100 µM | > 100 µM | > 100 µM | > 100 µM |  |  |  |  |  |  |  |  |
| O=C(CCBr)N1CCN(C(=O)CCBr)CC1 | 212 µM | 191 µM | 293 µM | 221 µM | 181 µM | 206 µM | 168 µM | 232 µM | 221 µM | 206 µM |  |  |  |  |  |  |  |  |
